US11821903B2, “Sensor” (The University of Bristol, priority 2017, dated 2023)

Assay: Binding of reporter dye prodan to the lumen of alpha helical barrels (fluorescence titration)
Conditions: dissociation constant of prodan (1 μM) with alpha helical barrel 0.5-500 μM, up to 2 hours, fluorescent signal
Description: The dyes 1,6-diphenyl-1,3,5-hexatriene (DPH) and 6-propionyl-2-dimethylaminonaphthalene (prodan) were assayed against a number of alpha helical barrels to determine their dissociation constants, KD. DPH or prodan (1 μM) was incubated with varying concentrations of alpha helical barrel (0.5-500 μM) for up to 2 hours, and the fluorescent signal measured at the corresponding emission wavelength.

Kd [µM]	Prodan KD	Sequence
> 500	did not bind	GKIEQILQKIEKILQKIEWILQKIEQILQG [CC-Pent, forms alpha helical barrel with 5 helices]
> 500	did not bind	GELKAIAQELKAIAKELKAIAWELKAIAQG [CC-Hex, forms alpha helical barrel with 6 helices]
